Molecular target: T1, NPC1L1 (Homo sapiens, UniProt Q9UHC9)
T1 construct: from tissue; host or cells: small intestine of hypercholesterolemic patients (in vivo, clinical trial)
T1 sequence (Q9UHC9 22-1332 isoform Q9UHC9-2 limits assumed): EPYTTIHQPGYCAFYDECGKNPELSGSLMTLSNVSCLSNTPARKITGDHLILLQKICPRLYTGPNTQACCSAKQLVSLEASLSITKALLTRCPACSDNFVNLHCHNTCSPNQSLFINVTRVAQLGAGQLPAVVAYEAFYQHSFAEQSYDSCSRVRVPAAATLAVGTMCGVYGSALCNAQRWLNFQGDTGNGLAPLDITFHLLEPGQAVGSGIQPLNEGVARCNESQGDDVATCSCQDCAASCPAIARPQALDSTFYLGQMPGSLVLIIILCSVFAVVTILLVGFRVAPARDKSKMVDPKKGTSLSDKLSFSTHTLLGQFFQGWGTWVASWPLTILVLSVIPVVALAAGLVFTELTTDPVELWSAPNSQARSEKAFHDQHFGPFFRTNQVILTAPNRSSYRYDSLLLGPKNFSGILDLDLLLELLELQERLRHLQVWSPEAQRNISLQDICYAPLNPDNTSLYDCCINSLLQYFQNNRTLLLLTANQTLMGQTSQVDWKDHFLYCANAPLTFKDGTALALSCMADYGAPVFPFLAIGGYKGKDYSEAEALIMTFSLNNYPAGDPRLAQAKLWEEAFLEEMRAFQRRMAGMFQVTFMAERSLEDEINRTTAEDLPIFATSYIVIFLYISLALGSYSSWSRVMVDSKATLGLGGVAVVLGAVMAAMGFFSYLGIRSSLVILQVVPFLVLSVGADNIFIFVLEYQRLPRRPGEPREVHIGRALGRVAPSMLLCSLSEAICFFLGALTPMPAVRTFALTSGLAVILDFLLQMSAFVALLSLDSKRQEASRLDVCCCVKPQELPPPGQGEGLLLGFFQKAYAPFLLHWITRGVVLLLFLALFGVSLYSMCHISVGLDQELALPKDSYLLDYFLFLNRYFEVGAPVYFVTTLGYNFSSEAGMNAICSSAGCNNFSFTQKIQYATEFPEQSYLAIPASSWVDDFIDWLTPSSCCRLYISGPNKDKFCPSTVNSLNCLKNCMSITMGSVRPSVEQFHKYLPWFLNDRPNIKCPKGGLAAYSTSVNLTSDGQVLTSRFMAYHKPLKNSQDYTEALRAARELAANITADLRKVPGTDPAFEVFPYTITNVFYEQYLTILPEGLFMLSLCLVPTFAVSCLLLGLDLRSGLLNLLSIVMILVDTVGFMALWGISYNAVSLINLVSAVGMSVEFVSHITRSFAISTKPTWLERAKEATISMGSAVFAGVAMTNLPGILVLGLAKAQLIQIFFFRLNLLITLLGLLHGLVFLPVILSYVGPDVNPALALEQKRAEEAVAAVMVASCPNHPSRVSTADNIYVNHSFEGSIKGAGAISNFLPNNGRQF
Assay: EASE trial: LDL-C response to six weeks of ezetimibe 10 mg/day added to stable statin therapy, analysed by NPC1L1 genotype/haplotype
Assay type: in vivo
Conditions: for Least-Squares (adjusted) Mean (n,/Stderr), percent change in LDL-C: Extreme responders N = 239; for Odds Ratio, extreme responder association with SNP: g.-18C > A; for Adjusted Least Squares Mean, LDL-C response: extreme responder data set
Description: Genotyping assays were developed for a number of novel and known common variants with minor allele frequencies greater than 4% that were identified in Example 1. Genetic association analysis was performed with these SNPs in a clinical trial cohort (EASE), described below, to assess whether DNA sequence variants in NPC1L1 are associated with changes in the levels of a variety of plasma cholesterol components in hypercholesterolemia patients in response to pharmacotherapy with ezetimibe and statins as compared to patients treated with a statin and placebo.
To study whether variations in NPC1L1 were associated with response to ezetimibe added to statin therapy, a study population was derived from the Ezetimibe Add-On to Statin for Effectiveness (EASE) Trial (Pearson et al., (2005) Mayo Clinic Proceedings, In Press). The EASE trial was a community-based, randomized, double-blind, placebo controlled study to evaluate the effects of six weeks of ezetimibe, 10 mg/day, added on to a stable regimen of statin therapy, on lipid biomarkers in hypercholesterolemic patients whose LDL-C levels exceeded the National Cholesterol Education Program (NCEP) Adult Treatment Panel (ATP) m guidelines for their coronary heart disease (CHD) risk category. At enrollment, patients taking a stable dose of statin (any dose, any brand) and following a NCEP Step 1 diet or similar cholesterol-lowering diet for at least six weeks prior to entry into the study were randomized to either the ezetimibe (n=2020, 2009 received the treatment) or placebo (n=1010, 1009 received the treatment) arm. From the ezetimibe group, 1208 patients provided consent for genomic analysis and were included in this study. A series of clinical measures corresponding to various cardiovascular risk factors were measured from samples obtained from all trial participants and are summarized by Pearson et al., supra.
Twenty one SNPs from Table 4 (Example 1) were converted to valid genotyping assays, thirteen of which had allele frequencies greater than 2% in all EASE sub-populations. TaqMan Allelic Discrimination assays (Livak, (1999) Genet. Anal. 14:143-49) were performed using Primer Express software and the Assay-by-Design service offered by Applied Biosystems (Foster City, Calif.). […] All probe/primer sets were designed to function using universal reaction and cycling conditions.
The twenty one selected SNPs were genotyped in 1,208 individuals participating in the ezetimibe+statin treatment arm of the EASE trial. A series of clinical measures corresponding to various cardiovascular risk factors were taken on all trial participants (Tables 4a-d). Thirteen selected SNPs genotyped in the EASE cohort were confirmed as having common allele frequencies in this cohort, i.e., an allele frequency of greater than 2% in all EASE sub-populations. […] This could reflect the increased power in the larger EASE cohort to make such detections (see Table 5).
The mean (SD) for total plasma cholesterol, HDL cholesterol (HDL-C), and LDL cholesterol (LDL-C) was 211.0 (34.9), 48.6 (11.5), and 129.1 (30.0) mg/dL, respectively (Pearson et al., supra). […] The distribution of these measurements was similar in the subjects enrolled in this genetic study (Pearson et al., supra). […] No significant associations were found between these response predictive variables and any of the tagging SNPs.
Genetic association analysis was carried out in the EASE cohort with LDL-C response to ezetimibe treatment considered as the primary outcome variable. Individual SNPs, haplotypes, and haplotype combinations were the principal explanatory variables used in the analyses. General linear models were used to estimate the effects of genotypes, haplotypes, and diplotypes on the LDL-C response phenotype. Baseline LDL-C levels, sex, age, and race were investigated to determine if they gave rise to significant effects. Baseline LDL-C levels associated with significant effects in all models and were therefore included in all analyses. […]

Least-Squares (adjusted) Mean (n,/Stderr), percent change in LDL-C (g.1679C > G C/C): C/C: −17.49 (143/2.71) %
Least-Squares (adjusted) Mean (n,/Stderr), percent change in LDL-C (g.1679C > G C/G): C/G: −25.16 (85/3.51) %
Least-Squares (adjusted) Mean (n,/Stderr), percent change in LDL-C (g.1679C > G G/G): G/G: −40.93 (11/9.76) %
Odds Ratio, extreme responder association with SNP (baseline LDL-C as covariate table, extreme responders N = 239, CI (1.59, 5.44)): Odds Ratio = 2.94-
Least-Squares (adjusted) Mean, percent change in LDL-C (baseline LDL-C as covariate, extreme responders N = 239, g.-18C > A C/C): C/C: −17.8%
Least-Squares (adjusted Mean), percent change from baseline LDL-C (baseline LDL-C as covariate, g.-18C > A A/A): −26.5%
Least-Squares (adjusted Mean), percent change from baseline LDL-C (baseline LDL-C as covariate, g.-18C > A C/A): −27.9%
Least-Squares (adjusted Mean), percent change from baseline LDL-C (baseline LDL-C as covariate, g.-18C > A C/C): −24.2%
Least-Squares (adjusted Mean), percent change from baseline LDL-C (baseline LDL-C as covariate, g.-133A > G A/A): −25.9%
Least-Squares (adjusted Mean), percent change from baseline LDL-C (baseline LDL-C as covariate, g.-133A > G A/G): −24.8%
Least-Squares (adjusted Mean), percent change from baseline LDL-C (baseline LDL-C as covariate, g.-133A > G G/G): −21.9%
Least-Squares (adjusted Mean), percent change from baseline LDL-C (baseline LDL-C as covariate, g.1679C > G C/C): −24.5%
Least-Squares (adjusted Mean), percent change from baseline LDL-C (baseline LDL-C as covariate, g.1679C > G C/G): −26%
Least-Squares (adjusted Mean), percent change from baseline LDL-C (baseline LDL-C as covariate, g.1679C > G G/G): −27.9%
Least-Squares (adjusted Mean), percent change from baseline LDL-C (baseline LDL-C as covariate, g.19224G > A A/A): −28.6%
Least-Squares (adjusted Mean), percent change from baseline LDL-C (baseline LDL-C as covariate, g.19224G > A G/A): −25.8%
Least-Squares (adjusted Mean), percent change from baseline LDL-C (baseline LDL-C as covariate, g.19224G > A G/G): −25%
Least-Squares (adjusted Mean), percent change from baseline LDL-C (baseline LDL-C as covariate, g.19259T > C C/C): −26.2%
Least-Squares (adjusted Mean), percent change from baseline LDL-C (baseline LDL-C as covariate, g.19259T > C T/C): −25.2%
Least-Squares (adjusted Mean), percent change from baseline LDL-C (baseline LDL-C as covariate, g.19259T > C T/T): −25%
Least-Squares (adjusted Mean), percent change from baseline LDL-C (baseline LDL-C as covariate, g.28650A > G A/A): −24.3%
Least-Squares (adjusted Mean), percent change from baseline LDL-C (baseline LDL-C as covariate, g.28650A > G A/G): −26.6%
Least-Squares (adjusted Mean), percent change from baseline LDL-C (baseline LDL-C as covariate, g.28650A > G G/G): −28%
additional decrease in absolute LDL-C levels (corresponding to a 15% relative increase in LDL-C reductions): ~5 mg/dL
Adjusted Least Squares Mean, LDL-C response (diplotype A-A-C / A-C-C): −38.20%
Adjusted Least Squares Mean, LDL-C response (diplotype A-A-G / A-C-C): −34.80%
Adjusted Least Squares Mean, LDL-C response (diplotype A-A-G / A-C-G): −40.29%
Adjusted Least Squares Mean, LDL-C response (diplotype A-A-G / G-C-C): −29.06%
Adjusted Least Squares Mean, LDL-C response (diplotype A-C-C / A-C-C): −21.78%
Adjusted Least Squares Mean, LDL-C response (diplotype A-C-C / A-C-G): −4.60%
Adjusted Least Squares Mean, LDL-C response (diplotype A-C-C / G-C-C): −14.60%
Adjusted Least Squares Mean, LDL-C response (diplotype A-C-G / A-C-G): −41.46%
Adjusted Least Squares Mean, LDL-C response (diplotype A-C-G / G-C-C): −24.20%
Adjusted Least Squares Mean, LDL-C response (diplotype G-C-C / G-C-C): 3.93%
Adjusted Least Squares Mean, LDL-C response (diplotype G-C-C / G-C-G): −66.96%
Adjusted Least Squares Mean (stderr), LDL-C response (extreme responders, 3-SNP haplotype A-A-G, 0 copies (count 181)): −17.32 (2.38) %
Adjusted Least Squares Mean (stderr), LDL-C response (extreme responders, 3-SNP haplotype A-A-G, 1 copy (count 58)): −33.69 (4.21) %
Adjusted Least Squares Mean (stderr), LDL-C response (extreme responders, 3-SNP haplotype G-C-C, 0 copies (count 139)): −24.51 (2.75) %
Adjusted Least Squares Mean (stderr), LDL-C response (extreme responders, 3-SNP haplotype G-C-C, 1 copy (count 92)): −18.62 (3.38) %
Adjusted Least Squares Mean (stderr), LDL-C response (extreme responders, 3-SNP haplotype G-C-C, 2 copies (count 8)): 3.93 (11.45) %
mean LDL-C percent response (extreme responders, g.−18C>A heterozygotes): 33.98%
increase in efficacy / increased reduction in LDL-C (extreme responders, g.−18C>A heterozygotes vs homozygous common allele): 100%
mean LDL-C percent response (extreme responders, homozygous for the common allele of g.−18C>A (176/239)): 16.8%
Odds Ratio, extreme responder association with SNP (extreme responders N = 239, 95% CI 1.59, 5.44): Odds ratio** = 2.94-
increased LDL-C response / greater reduction in LDL-C (g.−18C>A minor allele carriers compared to homozygous major allele, EASE cohort): 15%
SMILES: O=C1[C@H](CC[C@H](O)c2ccc(F)cc2)[C@@H](c2ccc(O)cc2)N1c1ccc(F)cc1 [ezetimibe, 1-(4-fluorophenyl)-3(R)-[3-(4-fluorophenyl)-3(S)-hydroxypropyl]-4(S)-(4-hydroxyphenyl)-2-azetidinone]
